The text below walks through data of article PMC6656724 (Communications Biology, 2019).

Series [1] has as its system KMO activity in the striatum. Kind of series: De novo 3-HK synthesis after intrastriatal [5-3H]-kynurenine. Type of series: in vivo, Sprague–Dawley rats. As for the experimental part:
The prodrug (5 mg/kg) was administered intravenously to rats, immediately followed by an intrastriatal infusion of [^3H]-KYN. Tritiated KP metabolites were analysed after 1 h. A significant ~70% reduction (P < 0.01) in [^3H]-3-HK was observed (Fig. 3f) in parallel with minor increases in [^3H]-QUIN and […] (data not shown)—mirroring the results using a focal intracerebral injection of a KMO inhibitor[17].
The radioactive tracer method previously described by Guidetti et al. (1995)[31] was used to study acute KP metabolism in the brain in vivo. To this end, adult male Sprague–Dawley rats (weighing 270–300 g) were anesthetized with isoflurane using a vaporiser (induction dose 5%, maintenance dose 2%, v/v, in 100% oxygen) and placed in a stereotaxic frame. […] After thawing, tritiated KP metabolites were detected and analysed as described previously. The production of newly formed [^3H]-KYNA, [^3H]-3-HK and [^3H]-QUIN was expressed as a percentage of the total radioactivity recovered per striatum. […] The mobile phase was flown at 1.2 ml/min (Waters 515 HPLC Pump) through YMC-Pack Pro C18 (250 × 4.6 mm) column and detected with UV (Applied Biosystems 785A Absorbance Detector) at 254 nm then mixed with LabLogic FlowLogic U scintillation fluid flowing at 2.7 mL/min and radiation was detected (Berthold Technologies FlowStar LB514).

Series [2] in a line: Elimination in urine after intravenous administration. Type of series: in vivo, female C57BL/6 mouse. As to conditions: mouse, 1 mg free base/kg i.v. As for the experimental part: Supplementary Table 8. Elimination of inhibitor 1 in urine following single
intravenous administration at 1 mg free base/kg to a female C57BL/6 mouse.
Time Absolute amount of drug Amount of drug in urine

The test system of series [3] is wild type MDCK cell lines. Kind of series: in vitro. Type of series: in vitro ADME, canine. As to conditions: wild type MDCK; listed as Inhibitor 1.
The test system of the next series is MDR1 MDCK cell lines. Kind of series: in vitro. Type of series: in vitro ADME, canine. As to conditions: MDR1 MDCK; listed as Inhibitor 1.
The target in the next series is MDR1 (P-glycoprotein) (Homo sapiens, UniProt P08183). Type of series: in vitro ADME. As to conditions: from effective efflux ratio. As for the experimental part: internal standard at each timepoint. […]
including an analytical internal standard.
Apparent permeability (Papp) values were determined from the relationship: […]
Where V is the volume of each Transwell compartment (apical 125 µL, basolateral 600 µL), and concentrations are the relative MS responses for compound (normalized to internal standard) in the donor chamber before incubation and acceptor chamber at the end of the incubation. Area = area of cells exposed for drug transfer (0.33 cm 2).
Efflux ratios (Papp B>A / Papp A>B) were calculated for each compound from the […]
MDR1-MDCK cell line has been engineered to overexpress the efflux transporter, MDR1 (P-glycoprotein), and a finding of good permeability B>A, but poor […]
order to confirm the involvement of MDR1 in any efflux seen, an “ef fective efflux ratio” (EER) was calculated by comparing compound efflux ratios (ER) in the two cell types, i.e. EER = ER (MDR1-MDCK)/ ER (wild-type MDCK). This ratio illustrates the effect of the over-expressed MDR1 normalised for the background movement of compound through the wild-type cells. […]
Compound recovery from the wells was determined from MS responses (normalized to internal standard) in donor and acceptor chambers at the end of incubation compared to response in the donor chamber pre-incubation. […]

Where “and” joins values, the source holds several entries; their conditions need not be identical. Equal values may be shown once.

MDR1 (P-glycoprotein), sequence (P08183 whole entry): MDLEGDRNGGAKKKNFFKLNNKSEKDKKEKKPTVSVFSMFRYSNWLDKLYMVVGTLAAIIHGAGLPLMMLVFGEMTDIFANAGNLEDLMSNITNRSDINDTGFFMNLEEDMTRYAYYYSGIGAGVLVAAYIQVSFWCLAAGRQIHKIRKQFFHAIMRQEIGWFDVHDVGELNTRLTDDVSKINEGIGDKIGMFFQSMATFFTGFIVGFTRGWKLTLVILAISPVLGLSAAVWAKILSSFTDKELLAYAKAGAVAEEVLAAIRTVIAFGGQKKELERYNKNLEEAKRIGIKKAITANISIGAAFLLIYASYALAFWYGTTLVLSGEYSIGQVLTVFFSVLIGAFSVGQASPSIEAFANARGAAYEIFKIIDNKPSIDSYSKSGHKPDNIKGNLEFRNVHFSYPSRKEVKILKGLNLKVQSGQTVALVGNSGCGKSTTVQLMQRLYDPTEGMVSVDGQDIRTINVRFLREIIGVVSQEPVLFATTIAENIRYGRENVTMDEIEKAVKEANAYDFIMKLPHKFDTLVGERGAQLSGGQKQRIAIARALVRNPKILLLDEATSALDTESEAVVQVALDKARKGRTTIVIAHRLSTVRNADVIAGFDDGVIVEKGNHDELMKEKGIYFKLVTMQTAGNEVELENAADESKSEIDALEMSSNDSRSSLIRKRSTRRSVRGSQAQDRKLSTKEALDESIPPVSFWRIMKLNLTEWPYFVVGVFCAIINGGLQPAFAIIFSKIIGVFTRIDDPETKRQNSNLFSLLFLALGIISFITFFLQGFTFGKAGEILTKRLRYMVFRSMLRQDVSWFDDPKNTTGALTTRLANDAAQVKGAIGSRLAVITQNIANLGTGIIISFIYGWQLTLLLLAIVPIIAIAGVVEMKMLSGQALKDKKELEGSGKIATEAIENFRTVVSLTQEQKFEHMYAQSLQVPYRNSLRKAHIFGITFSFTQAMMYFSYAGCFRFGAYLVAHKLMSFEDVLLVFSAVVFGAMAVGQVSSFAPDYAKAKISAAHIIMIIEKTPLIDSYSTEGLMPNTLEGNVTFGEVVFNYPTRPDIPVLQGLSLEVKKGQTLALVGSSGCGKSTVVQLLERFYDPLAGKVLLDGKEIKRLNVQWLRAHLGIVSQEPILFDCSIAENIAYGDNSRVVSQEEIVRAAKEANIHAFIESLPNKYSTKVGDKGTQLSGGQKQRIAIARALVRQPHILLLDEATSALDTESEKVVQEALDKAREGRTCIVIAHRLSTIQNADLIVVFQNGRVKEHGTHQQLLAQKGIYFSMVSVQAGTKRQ

`CCOC(=O)CN1C(=O)COc2cc(C)c(Cl)c(C)c21` [1b]: the “Reduction in [3H]-3-HK” value in series [1] (rat striatum, 5 mg/kg i.v., 1 h, vs vehicle) is ~ 70%. Further, in series [1] (striatum of awake rats, 1 h after 5 mg/kg i.v., single rats, listed as Prodrug 1b), the “Percentage of [5-3H]-KYN that is metabolized into [3H]-3-HK” value was 0.72% and 0.39% and 1.91% and 0.11% and 1.44% and 0.83% and 2.24% and 1.06% and 1.38% and 0.19%.

As to `Cc1cc2c(c(C)c1Cl)N(CC(=O)O)C(=O)CO2` [compound 1, (6-chloro-5,7-dimethyl-3-oxo-2,3-dihydro-4H-1,4-benzoxazin-4-yl) acetic acid], the figures for the “Absolute amount of drug recovered in urine” value in series [2] (0 - 8 h) and in series [2] (8 - 24 h) were 8.67 µg and 0.15 µg, respectively. The entries for the “Amount of drug in urine recovered” value in series [2] (0 - 8 h) and in series [2] (8 - 24 h) were 30.3 % Dose and 0.5 % Dose, respectively. In addition, the “Papp A>B Mean” value (in series [3]; in the series with MDR1 MDCK cell lines) was ~ 15 x 10-6 cm/sec in each case. Also, the “Substrate for P-glycoprotein” value at MDR1 (P-glycoprotein) is listed as “not a substrate”.
